Laboratory results: US11926627B1 (priority 2023, dated 2024)
In brackets after ≈: the same amount, converted by molar mass. Where two headings read alike, the source gives them in different places.

System: Mycobacterium tuberculosis H37Rv (ATCC: 25177)
Experiment: Resazurin Microplate Assay (REMA), antitubercular activity against H37Rv
Assay type: cell-based
Conditions: 192 h, read-out: Antitubercular activity against Mycobacterium tuberculosis H37Rv (MIC)
[1] = H37Rv, ATCC: 25177, REMA, Middlebrook 7H9 broth, 8 days incubation at 37° C. then resazurin overnight

Row | Compound | MIC (H37RV) | MIC [1]
1 | COC(=O)c1c(C(=O)OC)c2ccc3cc(C)ccc3n2c1C(=O)c1ccc(F)cc1 [7-METHYL-QUIN1, Dimethyl 1-(4-fluorobenzoyl)-7-methylpyrrolo[1,2-α]quinoline-2,3-dicarboxylate] | 0.5 µg/mL (≈ 1.19 µM) | 
2 | COC(=O)c1c(C(=O)OC)c2ccc3cc(C)ccc3n2c1C(=O)c1ccc(Br)cc1 [7-METHYL-QUIN2, Dimethyl 1-(4-bromobenzoyl)-7-methylpyrrolo[1,2-α]quinoline-2,3-dicarboxylate] |  | 2 µg/mL (≈ 4.16 µM)
3 | CCOC(=O)c1cc(C(=O)c2ccc(Cl)cc2)n2c1ccc1cc(C)ccc12 [7-METHYL-QUIN3, Ethyl 1-(4-chlorobenzoyl)-7-methylpyrrolo[1,2-α]quinoline-3-carboxylate] |  | 4 µg/mL (≈ 10.2 µM)
4 | COC(=O)c1c(C(=O)OC)c2ccc3cc(C)ccc3n2c1C(=O)c1ccc(Cl)cc1 [7-METHYL-QUIN4, Dimethyl 1-(4-chlorobenzoyl)-7-methylpyrrolo[1,2-α]quinoline-2,3-dicarboxylate] |  | 4 µg/mL (≈ 9.18 µM)
